In ChEMBL document CHEMBL6127100, “Plant based steroidal and triterpenoid sapogenins: Chemistry on diosgenin and biological aspects” (Eur J Med Chem, 2024):

Legend:
Assay type in all cases: functional, cell-based
HuCC-A1 = experiment: Cytotoxicity against human HuCC-A1 cells assessed as reduction in cell growth incubated for 3 days by micro-titer plate reader analysis; settings: HuCC-A1, 72 h
HeLa = experiment: Cytotoxicity against human HeLa cells assessed as reduction in cell growth incubated for 48 hrs by MTT assay
KB = experiment: Cytotoxicity against human KB cells assessed as reduction in cell growth incubated for 3 days by micro-titer plate reader analysis; settings: 72 h
MDA-MB-231 = experiment: Cytotoxicity against human MDA-MB-231 cells assessed as reduction in cell growth incubated for 48 hrs by MTT assay; settings: MDA-MB-231, 48 h
HepG2 = experiment: Cytotoxicity against human HepG2 cells assessed as reduction in cell viability incubated for 24 hrs by MTT assay; settings: HepG2, 24 h
SH-SY5Y = experiment: Cytotoxicity against human SH-SY5Y cells assessed as reduction in cell viability incubated for 24 hrs by MTT assay

**Q.** Which results are given for `C[C@@H]1CC[C@@]2(OC1)O[C@H]1C[C@H]3[C@@H]4CC=C5C[C@@H](O[C@@H]6O[C@H](CO)[C@@H](O[C@@H]7O[C@H](CO)[C@@H](O[C@@H]8O[C@@H](C)[C@H](O)[C@@H](O)[C@H]8O)[C@H](O)[C@H]7O)[C@H](O)[C@H]6O[C@@H]6O[C@@H](C)[C@H](O)[C@@H](O)[C@H]6O)CC[C@]5(C)[C@H]4CC[C@]3(C)[C@H]1[C@@H]2C`?
**A.** IC50 (HuCC-A1): 2600 nM; IC50 (HeLa): 700 nM; IC50 (KB): 900 nM; IC50 (MDA-MB-231): 900 nM

**Q.** For `C[C@@H]1CC[C@@]2(OC1)O[C@H]1C[C@H]3[C@@H]4CC=C5C[C@@H](O[C@@H]6O[C@H](CO)[C@@H](O[C@@H]7O[C@H](CO)[C@@H](O)[C@H](O)[C@H]7O)[C@H](O)[C@H]6O[C@@H]6O[C@@H](C)[C@H](O)[C@@H](O)[C@H]6O)CC[C@]5(C)[C@H]4CC[C@]3(C)[C@H]1[C@@H]2C` [DELTONIN], which IC50 (HuCC-A1) is on record?
**A.** 3400 nM

**Q.** And the IC50 (HeLa)?
**A.** 900 nM

**Q.** What about the IC50 (KB) of the same compound?
**A.** 1200 nM

**Q.** What about the IC50 (MDA-MB-231) of the same compound?
**A.** 1100 nM

**Q.** `C[C@@H]1CC[C@@]2(OC1)O[C@H]1C[C@H]3[C@@H]4CC=C5C[C@@H](O[C@@H]6O[C@H](CO)[C@@H](O[C@@H]7O[C@@H](C)[C@H](O[C@@H]8O[C@@H](C)[C@H](O[C@@H]9O[C@@H](C)[C@H](O[C@@H]%10O[C@@H](C)[C@H](O)[C@@H](O)[C@H]%10O)[C@@H](O)[C@H]9O)[C@@H](O)[C@H]8O)[C@@H](O)[C@H]7O)[C@H](O)[C@H]6O[C@@H]6O[C@@H](C)[C@H](O)[C@@H](O)[C@H]6O)CC[C@]5(C)[C@H]4CC[C@]3(C)[C@H]1[C@@H]2C` was tested. Which IC50 (HepG2) did it give?
**A.** 13.4 µM

**Q.** For `C[C@@H]1CC[C@@]2(OC1)O[C@H]1C[C@H]3[C@@H]4CC=C5C[C@@H](OC(=O)[C@@H]6CCCN6)CC[C@]5(C)[C@H]4CC[C@]3(C)[C@H]1[C@@H]2C`, which IC50 (SH-SY5Y) is on record?
**A.** 7.2 µM

**Q.** Which IC50 (SH-SY5Y) does the source give for `CC(C)C[C@H](NC(=O)OC(C)(C)C)C(=O)O[C@H]1CC[C@@]2(C)C(=CC[C@H]3[C@@H]4C[C@@H]5O[C@]6(CC[C@@H](C)CO6)[C@@H](C)[C@@H]5[C@@]4(C)CC[C@@H]32)C1` here?
**A.** 9.5 µM

**Q.** Which IC50 (SH-SY5Y) does the source give for `C[C@@H]1CC[C@@]2(OC1)O[C@H]1C[C@H]3[C@@H]4CC=C5C[C@@H](OC(=O)[C@@H](N)Cc6ccccc6)CC[C@]5(C)[C@H]4CC[C@]3(C)[C@H]1[C@@H]2C` here?
**A.** 11.2 µM

**Q.** For `C[C@@H]1CC[C@@]2(OC1)O[C@H]1C[C@H]3[C@@H]4CC=C5C[C@@H](O[C@@H]6O[C@H](CO)[C@@H](O[C@@H]7O[C@@H](CO)[C@H](O)[C@H]7O)[C@H](O)[C@H]6O[C@@H]6O[C@@H](C)[C@H](O)[C@@H](O)[C@H]6O)CC[C@]5(C)[C@H]4CC[C@]3(C)[C@H]1[C@@H]2C`, which IC50 (HepG2) is on record?
**A.** 12.2 µM

**Q.** How did the IC50 (SH-SY5Y) turn out when `CCCC(N)C(=O)O[C@H]1CC[C@@]2(C)C(=CC[C@H]3[C@@H]4C[C@@H]5O[C@]6(CC[C@@H](C)CO6)[C@@H](C)[C@@H]5[C@@]4(C)CC[C@@H]32)C1` (stereo partly specified) was run?
**A.** 6.9 µM

**Q.** `CC[C@H](C)[C@H](NC(=O)OC(C)(C)C)C(=O)O[C@H]1CC[C@@]2(C)C(=CC[C@H]3[C@@H]4C[C@@H]5O[C@]6(CC[C@@H](C)CO6)[C@@H](C)[C@@H]5[C@@]4(C)CC[C@@H]32)C1` was tested. Which IC50 (SH-SY5Y) did it give?
**A.** 18.5 µM

**Q.** With `C[C@@H]1CC[C@@]2(OC1)O[C@H]1C[C@H]3[C@@H]4CC=C5C[C@@H](OC(=O)CN(C)C(=O)OC(C)(C)C)CC[C@]5(C)[C@H]4CC[C@]3(C)[C@H]1[C@@H]2C` as the compound, how does the IC50 (SH-SY5Y) read?
**A.** 15.2 µM
